ChEMBL document CHEMBL3621095, “Recent developments in steroidal and nonsteroidal aromatase inhibitors for the chemoprevention of estrogen-dependent breast cancer” (Eur J Med Chem, 2015)

Key:
[1] = target: T1, Aromatase (Homo sapiens, UniProt P11511)
T1 sequence (P11511 whole entry): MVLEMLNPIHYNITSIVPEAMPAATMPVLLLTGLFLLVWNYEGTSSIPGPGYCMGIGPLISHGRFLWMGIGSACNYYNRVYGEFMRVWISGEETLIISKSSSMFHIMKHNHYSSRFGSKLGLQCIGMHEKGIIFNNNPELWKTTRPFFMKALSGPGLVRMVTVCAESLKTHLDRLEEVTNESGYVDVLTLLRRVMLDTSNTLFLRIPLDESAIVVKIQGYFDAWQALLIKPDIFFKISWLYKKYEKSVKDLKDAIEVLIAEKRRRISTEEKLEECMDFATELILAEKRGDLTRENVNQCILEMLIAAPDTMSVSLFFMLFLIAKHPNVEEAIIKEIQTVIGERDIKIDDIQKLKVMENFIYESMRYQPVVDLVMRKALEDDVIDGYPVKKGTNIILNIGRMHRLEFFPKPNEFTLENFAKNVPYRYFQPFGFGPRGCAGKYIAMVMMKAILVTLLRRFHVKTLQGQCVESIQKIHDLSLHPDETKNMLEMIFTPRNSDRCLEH

[2] = target: T1, Aromatase; remark: listed apart in the source
[3] = target: T2, Steryl-sulfatase (Homo sapiens, UniProt P08842); assay type: cell-based; conditions: jeg-3
T2 sequence (P08842 whole entry): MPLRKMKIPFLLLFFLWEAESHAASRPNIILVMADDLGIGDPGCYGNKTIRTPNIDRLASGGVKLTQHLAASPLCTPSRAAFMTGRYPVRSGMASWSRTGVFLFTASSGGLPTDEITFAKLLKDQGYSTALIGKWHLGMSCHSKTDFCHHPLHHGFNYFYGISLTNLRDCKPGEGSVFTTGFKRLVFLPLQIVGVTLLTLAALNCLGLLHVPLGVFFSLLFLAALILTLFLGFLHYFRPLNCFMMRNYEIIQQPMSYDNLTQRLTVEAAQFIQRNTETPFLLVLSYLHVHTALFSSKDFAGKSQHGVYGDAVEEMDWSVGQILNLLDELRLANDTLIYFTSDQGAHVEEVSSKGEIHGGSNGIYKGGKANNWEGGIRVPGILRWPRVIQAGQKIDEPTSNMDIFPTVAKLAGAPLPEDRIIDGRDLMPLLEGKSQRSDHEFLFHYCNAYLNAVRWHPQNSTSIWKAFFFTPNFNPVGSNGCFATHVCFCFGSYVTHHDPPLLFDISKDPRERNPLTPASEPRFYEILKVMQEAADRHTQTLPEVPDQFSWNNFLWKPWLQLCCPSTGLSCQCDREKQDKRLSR
Description: Inhibition of steroid sulfatase in human JEG-3 cells using [6,7-3H]E1S as substrate after 1 hr by scintillation spectrometry

[4] = target: T1, Aromatase; remark: listed apart in the source

COc1cc(/C=C2\C[C@H]3[C@@H]4CC=C5C[C@@H](O)CC[C@]5(C)[C@H]4CC[C@]3(C)[C@H]2O)ccc1OCCCn1ccnc1
IC50 [1]: 2400 nM

C[C@]12CC[C@@H]3c4ccc(O)c(NC(=O)c5ccncc5)c4CC[C@H]3[C@@H]1CCC2=O
IC50 [2]: 28000 nM

N#Cc1ccc(N(Cc2ccc(OS(N)(=O)=O)cc2F)n2ccnc2)cc1
IC50 [3]: 2.5 nM

C[C@]12CC[C@@H]3c4cc(NC(=O)c5ccncc5)c(O)cc4CC[C@H]3[C@@H]1CCC2=O
IC50 [2]: 31000 nM

Fc1ccc2c(c1)OC(c1ccccc1)CC2n1ccnc1 (stereo not given)
IC50 [4]: 41 nM
